These results are taken from patent publication US20210253575A1, “PYRROLIDINE AMINE COMPOUNDS FOR THE TREATMENT OF AUTOIMMUNE DISEASE” (Hoffmann-La Roche Inc., priority 2018, published 2021).

Structures are written as SMILES. pIC50: −log10 of the molar value.

This assay has as its target T1, human TLR7 (Homo sapiens, UniProt Q9NYK1).
T1 sequence (Q9NYK1 27-1049): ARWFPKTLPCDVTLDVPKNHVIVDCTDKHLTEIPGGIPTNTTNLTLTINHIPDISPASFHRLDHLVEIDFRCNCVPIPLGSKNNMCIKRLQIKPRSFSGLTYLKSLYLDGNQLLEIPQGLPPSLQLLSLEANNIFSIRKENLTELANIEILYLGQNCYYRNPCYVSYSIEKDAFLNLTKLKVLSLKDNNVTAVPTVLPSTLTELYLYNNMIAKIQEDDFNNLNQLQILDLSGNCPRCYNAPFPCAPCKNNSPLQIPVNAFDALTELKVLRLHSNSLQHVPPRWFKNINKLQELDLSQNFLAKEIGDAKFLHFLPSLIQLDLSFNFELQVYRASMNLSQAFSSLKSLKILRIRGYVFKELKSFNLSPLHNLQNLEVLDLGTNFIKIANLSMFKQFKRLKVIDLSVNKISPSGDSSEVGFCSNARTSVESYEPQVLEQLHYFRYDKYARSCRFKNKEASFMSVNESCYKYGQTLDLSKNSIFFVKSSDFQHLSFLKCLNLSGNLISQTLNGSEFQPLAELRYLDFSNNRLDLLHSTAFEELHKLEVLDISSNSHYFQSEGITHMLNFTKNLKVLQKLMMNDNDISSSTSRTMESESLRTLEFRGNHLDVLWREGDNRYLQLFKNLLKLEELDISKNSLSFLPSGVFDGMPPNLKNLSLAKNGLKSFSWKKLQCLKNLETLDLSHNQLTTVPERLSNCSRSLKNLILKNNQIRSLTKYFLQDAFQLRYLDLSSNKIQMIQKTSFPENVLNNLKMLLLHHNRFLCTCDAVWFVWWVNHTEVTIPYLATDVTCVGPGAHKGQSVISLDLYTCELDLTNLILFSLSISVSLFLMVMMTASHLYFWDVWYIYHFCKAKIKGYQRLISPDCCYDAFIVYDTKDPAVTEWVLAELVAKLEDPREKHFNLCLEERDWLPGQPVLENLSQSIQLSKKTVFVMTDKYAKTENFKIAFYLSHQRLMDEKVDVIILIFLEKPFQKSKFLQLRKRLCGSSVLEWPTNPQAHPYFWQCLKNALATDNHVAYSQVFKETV
As to the kind of experiment: HEK293-Blue-hTLR-7 cells assay (SEAP reporter, R848 stimulation). The settings on record: HEK293-Blue-hTLR7 cells, R848 ligand, 20 hrs incubation. The assay is classed as cell-based. As to the method: The following tests were carried out in order to determine the activity of the compounds of formula (I) in HEK293-Blue-hTLR-7/8/9 cells assay.
HEK293-Blue-hTLR-7 Cells Assay:
A stable HEK293-Blue-hTLR-7 cell line was purchased from InvivoGen (Cat. #: hkb-htlr7, San Diego, Calif., USA). These cells were originally designed for studying the stimulation of human TLR7 by monitoring the activation of NF-κB. A SEAP (secreted embryonic alkaline phosphatase) reporter gene was placed under the control of the IFN-β minimal promoter fused to five NF-κB and AP-1-binding sites. The SEAP was induced by activating NF-κB and AP-1 via stimulating HEK-Blue hTLR7 cells with TLR7 ligands. Therefore the reporter expression was declined by TLR7 antagonist under the stimulation of a ligand, such as R848 (Resiquimod), for incubation of 20 hrs. The cell culture supernatant SEAP reporter activity was determined using QUANTI-Blue™ kit (Cat. #: rep-qb1, Invivogen, San Diego, Ca, USA) at a wavelength of 640 nm, a detection medium that turns purple or blue in the presence of alkaline phosphatase.
HEK293-Blue-hTLR7 cells were incubated at a density of 250,000-450,000 cells/mL in a volume of 170 μL in a 96-well plate in Dulbecco's Modified Eagle's medium (DMEM) containing 4.5 g/L glucose, 50 U/mL penicillin, […], […], 2 mM L-glutamine, 10% (v/v) heat-inactivated fetal bovine serum with addition of 20 μL test compound in a serial dilution in the presence of final DMSO at 1% and 10 μL of 20 uM R848 in above DMEM, perform incubation under 37° C. in a CO2 incubator for 20 hrs. Then 20 μL of the supernatant from each well was incubated with 180 μL Quanti-blue substrate solution at 37° C. for 2 hrs and the absorbance was read at 620-655 nm using a spectrophotometer. The signalling pathway that TLR7 activation leads to downstream NF-κB activation has been widely accepted, and therefore similar reporter assay was modified for evaluating TLR7 antagonist.
`N#Cc1ccc(N2CC(CN3CCC4(CC3)CNCCO4)C3(CC3)C2)c2nccnc12` (centres unmarked) [Example 49, 8-[7-(1-Oxa-4,9-diazaspiro[5.5]undecan-9-ylmethyl)-5-azaspiro[2.4]heptan-5-yl]quinoxaline-5-carbonitrile] gave a pIC50 of 6.82.
The same measure for `N#Cc1ccc(N2CC(CN3CC4CCNCC43)C3(CC3)C2)c2nccnc12` (centres unmarked) [Example 50, 8-[7-(3,8-Diazabicyclo[4.2.0]octan-8-ylmethyl)-5-azaspiro[2.4]heptan-5-yl]quinoxaline-5-carbonitrile]: 6.63; for `N#Cc1ccc(N2C[C@H](CN3CCC(N)CC3)[C@@H](C(F)(F)F)C2)c2nccnc12` [Example 51, 8-[(3S,4R)-3-[(4-amino-1-piperidyl)methyl]-4-(trifluoromethyl)pyrrolidin-1-yl]quinoxaline-5-carbonitrile]: 7.05.
The same measure for `N#Cc1ccc(N2C[C@H](CN3CCC(N4CCNCC4)CC3)[C@@H](C(F)(F)F)C2)c2cccnc12` [Example 52, 5-[(3S,4R)-3-[(4-piperazin-1-yl-1-piperidyl)methyl]-4-(trifluoromethyl)pyrrolidin-1-yl]quinoline-8-carbonitrile]: 7.41.
For `N#Cc1ccc(N2C[C@H](CN3CC4(CC(N)C4)C3)[C@@H](C(F)(F)F)C2)c2cccnc12` [Example 53, 5-[(3S,4R)-3-[(6-Amino-2-azaspiro[3.3]heptan-2-yl)methyl]-4-(trifluoromethyl)pyrrolidin-1-yl]quinoline-8-carbonitrile] the value was 6.94.
The molecule `N#Cc1ccc(N2C[C@H](CN3CCC4(CCNC4)CC3)[C@@H](C(F)(F)F)C2)c2cccnc12` [Example 54, 5-[(3S,4R)-3-(2,8-Diazaspiro[4.5]decan-8-ylmethyl)-4-(trifluoromethyl)pyrrolidin-1-yl]quinoline-8-carbonitrile] gave a pIC50 of 7.04.
The same measure for `N#Cc1ccc(N2C[C@H](CN3CCC4(CCCNC4)CC3)[C@@H](C(F)(F)F)C2)c2cccnc12` [Example 55, 5-[(3S,4R)-3-(2,9-Diazaspiro[5.5]undecan-9-ylmethyl)-4-(trifluoromethyl)pyrrolidin-1-yl]quinoline-8-carbonitrile]: 6.95; for `N#Cc1ccc(N2C[C@H](CN3CCC4(CCNCC4)C3)[C@@H](C(F)(F)F)C2)c2cccnc12` [Example 56, 5-[(3S,4R)-3-(2,8-Diazaspiro[4.5]decan-2-ylmethyl)-4-(trifluoromethyl)pyrrolidin-1-yl]quinoline-8-carbonitrile]: 6.95; for `N#Cc1ccc(N2C[C@H](CN3CCCC4(CCNCC4)C3)[C@@H](C(F)(F)F)C2)c2cccnc12` [Example 57, 5-[(3S,4R)-3-(2,9-Diazaspiro[5.5]undecan-2-ylmethyl)-4-(trifluoromethyl)pyrrolidin-1-yl]quinoline-8-carbonitrile]: 7.14.
The molecule `N#Cc1ccc(N2CC(CN3CCC(N4CCOCC4)CC3)C3(CC3)C2)c2nccnc12` (centres unmarked) [Example 58, 8-[7-[(4-Morpholino-1-piperidyl)methyl]-5-azaspiro[2.4]heptan-5-yl]quinoxaline-5-carbonitrile] had a pIC50 of 6.50.
The same measure for `N#Cc1ccc(N2C[C@H](CN3CCNCC3)[C@@H](C(F)(F)F)C2)c2nccnc12` [Example 59, 8-[(3S,4R)-3-(Piperazin-1-ylmethyl)-4-(trifluoromethyl)pyrrolidin-1-yl]quinoxaline-5-carbonitrile]: 7.74; for `N#Cc1ccc(N2C[C@H](CN3CCC(N4CCCC4)CC3)[C@@H](C(F)(F)F)C2)c2nccnc12` [Example 60, 8-[(3S,4R)-3-[(4-Pyrrolidin-1-yl-1-piperidyl)methyl]-4-(trifluoromethyl)pyrrolidin-1-yl]quinoxaline-5-carbonitrile]: 7.54.
The same measure for `N#Cc1ccc(N2C[C@H](CN3CCC(N4CCCCC4)CC3)[C@@H](C(F)(F)F)C2)c2nccnc12` [Example 61, 8-[(3S,4R)-3-[[4-(1-Piperidyl)-1-piperidyl]methyl]-4-(trifluoromethyl)pyrrolidin-1-yl]quinoxaline-5-carbonitrile]: 7.66; for `N#Cc1ccc(N2C[C@H](CN3CCC(N4CCCCCC4)CC3)[C@@H](C(F)(F)F)C2)c2nccnc12` [Example 62, 8-[(3S,4R)-3-[[4-(Azepan-1-yl)-1-piperidyl]methyl]-4-(trifluoromethyl)pyrrolidin-1-yl]quinoxaline-5-carbonitrile]: 7.47.
The same measure for `N#Cc1ccc(N2C[C@H](CN3C4CCC3CC(N)C4)[C@@H](C(F)(F)F)C2)c2nccnc12` (stereo partly drawn) [Example 63, 8-[(3S,4R)-3-[(3-amino-8-azabicyclo[3.2.1]octan-8-yl)methyl]-4-(trifluoromethyl)pyrrolidin-1-yl]quinoxaline-5-carbonitrile]: 7.24; for `N#Cc1ccc(N2C[C@H](CN3CCC(N)C(F)(F)C3)[C@@H](C(F)(F)F)C2)c2nccnc12` (stereo partly drawn) [Example 64, 8-[(3S,4R)-3-[(4-amino-3,3-difluoro-1-piperidyl)methyl]-4-(trifluoromethyl)pyrrolidin-1-yl]quinoxaline-5-carbonitrile]: 7.44; for `N#Cc1ccc(N2CC(CN3CCC4(CCCCN4)CC3)C3(CC3)C2)c2nccnc12` (centres unmarked) [Example 65, 8-[7-(1,9-Diazaspiro[5.5]undecan-9-ylmethyl)-5-azaspiro[2.4]heptan-5-yl]quinoxaline-5-carbonitrile]: 6.97.
The molecule `N#Cc1ccc(N2CC(CN3CCC4NCC4C3)C3(CC3)C2)c2nccnc12` (centres unmarked) [Example 66, 8-[7-(3,7-Diazabicyclo[4.2.0]octan-3-ylmethyl)-5-azaspiro[2.4]heptan-5-yl]quinoxaline-5-carbonitrile] gave a pIC50 of 7.20.
The same measure for `N#Cc1ccc(N2CC(CN3CCOC4(CCNCC4)C3)C3(CC3)C2)c2nccnc12` (centres unmarked) [Example 67, 8-[7-(1-Oxa-4,9-diazaspiro[5.5]undecan-4-ylmethyl)-5-azaspiro[2.4]heptan-5-yl]quinoxaline-5-carbonitrile]: 6.88; for `N#Cc1ccc(N2CC(CN3CCC(N)CC3)C3(CC3)C2)c2nccnc12` (centres unmarked) [Example 68, 8-[7-[(4-Amino-1-piperidyl)methyl]-5-azaspiro[2.4]heptan-5-yl]quinoxaline-5-carbonitrile]: 7.12; for `N#Cc1ccc(N2C[C@H](CN3CCCC(C(N)=O)C3)[C@@H](C(F)(F)F)C2)c2nccnc12` (stereo partly drawn) [Example 69, 1-[[(3S,4R)-1-(S-cyanoquinoxalin-5-yl)-4-(trifluoromethyl)pyrrolidin-3-yl]methyl]piperidine-3-carboxamide]: 6.87.
For `N#Cc1ccc(N2C[C@H](CN3CCC4(CC3)CNCCO4)[C@@H](C(F)(F)F)C2)c2nccnc12` [Example 70, 8-[(3S,4R)-3-(1-oxa-4,9-diazaspiro[5.5]undecan-9-ylmethyl)-4-(trifluoromethyl)pyrrolidin-1-yl]quinoxaline-5-carbonitrile], the pIC50 was 7.92.
In the case of `N#Cc1ccc(N2C[C@H](CNC3CCNCC3)[C@@H](C(F)(F)F)C2)c2nccnc12` [Example 71, 8-[(3S,4R)-3-[(4-piperidylamino)methyl]-4-(trifluoromethyl)pyrrolidin-1-yl]quinoxaline-5-carbonitrile], the pIC50 is 7.41.
